Source: US12349673B2, “Emulsifiable concentrates” (priority 2018, dated 2025)

Legend:
Format in all cases: physicochemical
[1] = Method A: solubility of active ingredient in solvent by NMR spectroscopy of a saturated solution; details: for Active Ingredient Solubility: 2,4-D Acid: 2,4-dichlorophenoxyacetic acid dissolved in the named solvent; for Active Ingredient Solubility: MCPA: 2-methyl-4-chlorophenoxyacetic acid dissolved in the named solvent; for Active Ingredient Solubility: NBPT: N-(n-butyl)thiophosphoric triamide dissolved in the named solvent; for Active Ingredient Solubility: Bifenthrin: bifenthrin dissolved in the named solvent; for Active Ingredient Solubility: Dicamba Acid: dicamba acid dissolved in the named solvent; for Active Ingredient Solubility: Nitrapyrin: nitrapyrin dissolved in the named solvent; for Active Ingredient Solubility: Tebuconazole: tebuconazole dissolved in the named solvent
Description: (§1) The solubilities of active ingredients in the Ether Ketone Solvents and Comparative Solvents are determined on a saturated solution of a given active ingredient in a given solvent using NMR spectroscopy (Method A, as described below), or by visual evaluation of a concentration ladder of a given active ingredient in a given solvent (Method B, as described below).
Method A: Solubility Determination by NMR Spectroscopy
A saturated solution of a given active ingredient in a solvent is prepared by initially combining the active ingredient (0.8 g) and solvent (1.5 mL) in a vial and stirring vigorously for at least 24 hours. If a homogeneous solution is obtained, additional active ingredient is added until a significant amount of solid remains out of solution. The mixtures (˜0.25 mL) are then filtered with a PTFE syringe filter (0.45 μm) into an NMR tube that contained C6D6 (0.5 mL). The NMR tubes are capped and analyzed on Varian 400 NMR spectrometer equipped with an auto sampler. Proton NMR spectra are referenced to the residual proton peak in the deuterated solvent. Spectra used for quantitation are collected with a 180 second delay between pulses. Spectra are processed in MestReNova (version 11.0.4-18998) by baseline (Bernstein Polynomials) and phase correcting each spectrum followed by integration of all well-resolved solvent and active resonances. Active ingredient weight percentages are estimated by the following formula:
(§2) [formula] When possible, several well-resolved peaks are used for both solvent and active ingredient, and averaged to provide an estimation of variability in the measurement. Method B: Solubility Determination by Visual Evaluation

[2] = Solubility of Ether Ketone Solvent in water (dropwise addition, weighing); details: lab temperature 30° C.
Description: The solubilities of certain of the Ether Ketone Solvents in water are determined by adding water (˜10 to 50 grams) to a tared vial equipped with a stir bar. The weights of water are noted. The specified solvent is added dropwise using a 10 μL syringe until the mixture appeared to have solvent droplets suspended in the water. The mixture is weighed again and the weight percent solubility of the Ether Ketone Solvent in water is calculated.
(§3) The solubilities of water in certain of the Ether Ketone Solvents are also evaluated. A vial is charged with 5 grams of the specified solvent, and 3 Å activated molecular sieves (˜300 mg) are added. The vial is capped and the solvent left to dry for several days. The mixtures are filtered using a 0.2 μm syringe filter into a tared 20 mL vial and the weights are noted. Water is then added using a 10 μL syringe until the mixture appeared to have water droplets on the bottom of the vial. The mixture is weighed again and the weight percent solubility of water in the Ether Ketone solvent is calculated. The temperature in the lab is 30° C. at the time of the water solubility measurements.

[3] = Solubility of water in Ether Ketone Solvent (dropwise addition, weighing); details: water in dried solvent; lab temperature 30° C.
Description: as §3

[4] = Method B: solubility of active ingredient in solvent by visual evaluation of a concentration ladder; details: Method B (visual, 24 hours, 21° C.); for Active Ingredient Solubility: 2,4-D Acid: 2,4-dichlorophenoxyacetic acid dissolved in the named solvent; for Active Ingredient Solubility: MCPA: 2-methyl-4-chlorophenoxyacetic acid dissolved in the named solvent; for Active Ingredient Solubility: NBPT: N-(n-butyl)thiophosphoric triamide dissolved in the named solvent; for Active Ingredient Solubility: Bifenthrin: bifenthrin dissolved in the named solvent; for Active Ingredient Solubility: Tebuconazole: tebuconazole dissolved in the named solvent
Description: as §1, §2
Four-milliliter (mL) vials are charged with active ingredient (10 to 50 wt %), a stir bar, and solvent (90 to 50 wt %). The vials are capped and taped to seal. The vials are secured in a vial rack and shaken on a laboratory shaker for 24 hours at ambient lab temperature of 21° C. and 51% humidity. After 24 hours each sample set is evaluated for solubility of solid.

SMILES | Active Ingredient Solubility: 2,4-D Acid [1] [wt %] | Active Ingredient Solubility: MCPA [1] [wt %] | Active Ingredient Solubility: NBPT [1] [wt %] | Active Ingredient Solubility: Bifenthrin [1] [wt %] | Active Ingredient Solubility: Dicamba Acid [1] [wt %] | Active Ingredient Solubility: Nitrapyrin [1] [wt %] | Active Ingredient Solubility: Tebuconazole [1] [wt %] | Solubility In Water [2] [wt %] | Solubility Water In [3] [wt %] | Active Ingredient Solubility: 2,4-D Acid [4] [wt %] | Active Ingredient Solubility: MCPA [4] [wt %] | Active Ingredient Solubility: NBPT [4] [wt %] | Active Ingredient Solubility: Bifenthrin [4] | Active Ingredient Solubility: Tebuconazole [4] [wt %]
CCCCCOCC(C)OCC(C)=O (stereo not drawn) [DPnPent Ketone, 1-((1-(Pentyloxy)-2-propanyl)oxy)-2-propanone] | 15.0 | 22.0 | 24.4 | 31.8 | 48.7 | 41.8 | 12.0 | – | – | – | – | – | – | –
CCCCOCC(CC)OCC(=O)CC (stereo not drawn) [DBnB Ketone, 1-((1-Butoxy-2-butanyl)oxy)-2-butanone] | 13.2 | 17.1 | 15.7 | 34.7 | 45.6 | 42.6 | 10.5 | – | – | – | – | – | – | –
CCCCCOCC(C)=O [PnPent Ketone, 1-Pentyloxy-2-propanone] | 17.3 | 22.9 | 24.2 | 40.2 | 49.1 | 49.0 | 16.7 | – | – | – | – | – | – | –
CCCCCCCCOCC(C)=O [PnO Ketone, 1-Octyloxy-2-propanone] | 12.6 | 17.1 | 15.9 | 35.4 | 40.6 | 42.9 | 12.5 | – | – | – | – | – | – | –
CCCCOCC(C)OCC(C)=O (stereo not drawn) [DPnB Ketone, 1-((1-(Butoxy)-2-propanyl)oxy)-2-propanone] | 18.3 | 23.7 | 25.5 | 33.4 | 52.7 | 45.4 | 15.0 | 0.20 | 0.03 | – | – | – | – | –
CCCCCCOCC(=O)CC [BnH Ketone, 1-Hexyloxy-2-butanone] | 12.8 | 17.5 | 13.6 | 37.3 | 42.5 | 46.2 | 13.5 | 0.22 | 0.02 | – | – | – | – | –
CCCCOCC(C)OCC(C)OCC(C)=O (stereo not drawn) [TPnB Ketone, 1-((1-((1-Butoxy-2-propanyl)oxy)-2-propanyl)oxy)-2-propanone] | 16.3 | 22.5 | 22.1 | 13.0 | 49.7 | 37.0 | 10.8 | – | – | – | – | – | – | –
CC(=O)c1ccccc1 [Acetophenone] | – | – | – | – | 49.8 | 55.4 | – | – | – | <30 | <30 | <30 | <50 wt % | <30
O=C1CCCCC1 [Cyclohexanone] | – | – | – | – | 62.4 | 65.2 | – | – | – | <40 | <50 | <50 | Sol. at 50 wt % | <50
CCCCCCCCOCC(=O)CC [BnO Ketone, 1-Octyloxy-2-butanone] | 10.2 | 15.3 | 10.0 | 33.9 | 36.5 | 41.6 | 12.0 | – | – | – | – | – | – | –
CCCCCCOCC(C)OCC(C)=O (stereo not drawn) [DPnH Ketone, 1-((1-(Hexyloxy)-2-propanyl)oxy)-2-propanone] | 16.4 | 22.1 | 25.3 | 35.5 | 48.4 | 39.0 | 12.5 | 0.22 | 0.03 | – | – | – | – | –
CCCCCCOCC(CC)OCC(=O)CC (stereo not drawn) [DBnH Ketone, 1-((1-(Hexyloxy)-2-butanyl)oxy)-2-butanone] | 10.9 | 17.2 | 10.5 | 33.8 | 42.5 | 39.8 | 11.2 | – | – | – | – | – | – | –
CCCCOCC(C)=O [PnB Ketone, 1-Butoxy-2-propanone] | 20.2 | 26.8 | 32.8 | 43.3 | 54.0 | 53.4 | 25.1 | 0.20 | 0.005 | – | – | – | – | –
CCCCOCC(=O)CC [BnB Ketone, 1-Butoxy-2-butanone] | 15.6 | 21.6 | 21.0 | 42.6 | 48.9 | 55.0 | 16.9 | 0.43 | 0.11 | – | – | – | – | –
